Reference: ChEMBL document CHEMBL5352399, “(1R,3S)-THCCA-Asn: To show the discovery of selective inhibitor of thrombin by successfully combining virtual screening and biological assay” (Eur J Med Chem, 2022)
Active and inactive are the calls of the source. The calls are words filed in the database; no cut-off is given here.

Legend:
[1] = Anti-platelet aggregation activity in Sprague-Dawley rat platelet rich plasma assessed as inhibition of TH-induced aggregation preincubated with compound followed by TH addition measured after 5 mins by two channel chronology aggregometry; type: functional, cell-based
Platelet [2] = assay: Anti-platelet aggregation activity in Sprague-Dawley rat platelet rich plasma assessed as inhibition of ADP-induced aggregation preincubated with compound followed by ADP addition measured after 5 mins by two channel chronology aggregometry; type: functional, cell-based
Rattus norvegicus [3] = assay: Antithrombotic activity in Wistar rat model assessed as thrombus weight at 1 nmol/kg, po by polyethylene tube based method; type: functional
Platelet [4] = assay: Anti-platelet aggregation activity in Sprague-Dawley rat platelet rich plasma assessed as inhibition of AA-induced aggregation preincubated with compound followed by AA addition measured after 5 mins by two channel chronology aggregometry; type: functional, cell-based
Platelet [5] = assay: Anti-platelet aggregation activity in Sprague-Dawley rat platelet rich plasma assessed as inhibition of PAF-induced aggregation preincubated with compound followed by PAF addition measured after 5 mins by two channel chronology aggregometry; type: functional, cell-based
Rattus norvegicus [6] = assay: Antithrombotic activity in Wistar rat model assessed as thrombus weight at 10 nmol/kg, po by polyethylene tube based method; type: functional
[7] = Toxicity in rat thrombosis model assessed as bleeding in brain at 0.001 to 1 nmol/kg, po; type: tissue-based; conditions: in vivo, dose 0.001-1 nmol/kg
[8] = Cytotoxicity activity against human L02 cells assessed as cell growth inhibition incubated for 48 hrs by CCK-8 assay; type: toxicity, cell-based
[9] = Toxicity in rat thrombosis model assessed as bleeding in thoracic cavity at 0.001 to 1 nmol/kg, po; conditions: in vivo, dose 0.001-1 nmol/kg
[10] = Toxicity in rat thrombosis model assessed as bleeding in inferior cavity at 0.001 to 1 nmol/kg, po; conditions: in vivo, dose 0.001-1 nmol/kg
Rattus norvegicus [11] = assay: Anti-arterial thrombosis activity in po dosed male Wister rat thrombogenesis model assessed as thrombus weight by polyethylene tube based method; type: functional, organism-based; conditions: dose 0.001-1 nmol/kg
[12] = Cytotoxicity activity against human NHDF cells assessed as cell growth inhibition incubated for 48 hrs by CCK-8 assay; type: toxicity, cell-based
[13] = Cytotoxicity activity against human NCM460 cells assessed as cell growth inhibition incubated for 48 hrs by CCK-8 assay; type: toxicity, cell-based
[14] = Toxicity in rat thrombosis model assessed as change in tail bleeding time at 0.001 nmol/kg, po by tail bleeding time assay; type: organism-based; conditions: in vivo
[15] = Toxicity in rat thrombosis model assessed as change in tail bleeding time at 1 nmol/kg, po by tail bleeding time assay; type: organism-based; conditions: in vivo
[16] = Toxicity in rat thrombosis model assessed as change in tail bleeding time at 0.01 nmol/kg, po by tail bleeding time assay; type: organism-based; conditions: in vivo

Row | Structure (SMILES) | IC50 [1] | inhibition (Platelet [2]) | Activity (Rattus norvegicus [3]) | inhibition (Platelet [4]) | inhibition (Platelet [5]) | also measured
1 | COC(=O)c1cc([C@H]2N[C@H](C(=O)N[C@@H](CCC(N)=O)C(=O)O)Cc3c2[nH]c2ccccc32)ccc1O | 230 nM | inactive | 21.66 mg | inactive | inactive | –
2 | COC(=O)c1cc([C@H]2N[C@H](C(=O)O)Cc3c2[nH]c2ccccc32)ccc1O | – | – | – | – | – | Activity (Rattus norvegicus [6]): 23.17 mg
3 | COC(=O)c1cc([C@H]2N[C@H](C(=O)N[C@@H](CC(N)=O)C(=O)O)Cc3c2[nH]c2ccccc32)ccc1O | 70 nM | inactive | 19.19 mg | inactive | inactive | Activity [7]: Non-Toxic; IC50 at 48 h [8]: > 125000 nM; Activity [9]: Non-Toxic; Activity [10]: Non-Toxic; Activity (Rattus norvegicus [11]): Dose-Dependent Effect; IC50 at 48 h [12]: > 125000 nM; IC50 at 48 h [13]: > 125000 nM; Activity [14]: Non-Toxic; Activity [15]: Non-Toxic; Activity [16]: Non-Toxic
4 | COC(=O)c1cc([C@H]2N[C@H](C(=O)N[C@@H](Cc3c[nH]c4ccccc34)C(=O)O)Cc3c2[nH]c2ccccc32)ccc1O | 230 nM | inactive | 21.66 mg | inactive | inactive | –
5 | COC(=O)c1cc([C@H]2N[C@H](C(=O)N[C@H](C(=O)O)C(C)C)Cc3c2[nH]c2ccccc32)ccc1O | 230 nM | inactive | 23.69 mg | inactive | inactive | –
6 | COC(=O)c1cc([C@H]2N[C@H](C(=O)NCC(=O)O)Cc3c2[nH]c2ccccc32)ccc1O | 1750 nM | inactive | 23.69 mg | inactive | inactive | –
7 | COC(=O)c1cc([C@H]2N[C@H](C(=O)N[C@H](C(=O)O)[C@@H](C)O)Cc3c2[nH]c2ccccc32)ccc1O | 1750 nM | inactive | 23.69 mg | inactive | inactive | –
8 | CC[C@H](C)[C@H](NC(=O)[C@@H]1Cc2c([nH]c3ccccc23)[C@@H](c2ccc(O)c(C(=O)OC)c2)N1)C(=O)O | 230 nM | inactive | 21.66 mg | inactive | inactive | –
9 | COC(=O)c1cc([C@H]2N[C@H](C(=O)N[C@@H](CCC(=O)O)C(=O)O)Cc3c2[nH]c2ccccc32)ccc1O | 1750 nM | inactive | 23.69 mg | inactive | inactive | –
10 | COC(=O)c1cc([C@H]2N[C@H](C(=O)N[C@@H](CCCNC(=N)N)C(=O)O)Cc3c2[nH]c2ccccc32)ccc1O | 230 nM | inactive | 21.66 mg | inactive | inactive | –
11 | COC(=O)c1cc([C@H]2N[C@H](C(=O)N[C@@H](Cc3ccc(O)cc3)C(=O)O)Cc3c2[nH]c2ccccc32)ccc1O | 70 nM | inactive | 19.19 mg | inactive | inactive | –
12 | COC(=O)c1cc([C@H]2N[C@H](C(=O)N[C@@H](C)C(=O)O)Cc3c2[nH]c2ccccc32)ccc1O | 230 nM | inactive | 21.66 mg | inactive | inactive | –
13 | COC(=O)c1cc([C@H]2N[C@H](C(=O)N[C@@H](Cc3ccccc3)C(=O)O)Cc3c2[nH]c2ccccc32)ccc1O | 1750 nM | inactive | 23.69 mg | inactive | inactive | –
14 | COC(=O)c1cc([C@H]2N[C@H](C(=O)N[C@@H](CO)C(=O)O)Cc3c2[nH]c2ccccc32)ccc1O | 70 nM | inactive | 19.19 mg | inactive | inactive | –
15 | COC(=O)c1cc([C@H]2N[C@H](C(=O)N[C@@H](CC(C)C)C(=O)O)Cc3c2[nH]c2ccccc32)ccc1O | 1750 nM | inactive | 23.69 mg | inactive | inactive | –
16 | COC(=O)c1cc([C@H]2N[C@H](C(=O)N[C@@H](CCCCN)C(=O)O)Cc3c2[nH]c2ccccc32)ccc1O | 70 nM | inactive | 19.19 mg | inactive | inactive | –
17 | COC(=O)c1cc([C@H]2N[C@H](C(=O)N[C@@H](CC(=O)O)C(=O)O)Cc3c2[nH]c2ccccc32)ccc1O | 1750 nM | inactive | 23.69 mg | inactive | inactive | –
